Tests used:
[1] = system: tonic seizure produced by 50 milliamps current through corneal electrodes (hind limb tonic extension); experiment: Maximum Electroshock Test (MES); format: in vivo, female C57Bl/6 mice; conditions: Mus musculus, ip, 0.5 h; mice, i.p. 30 min before MES; abolition of hind limb tonic extension; read-out: MES Results: median effective dose (ED50)
Procedure: (§1) The anticonvulsive properties of the compounds of the invention were evaluated using two standard animal models of epilepsy: the maximal electroshock test (MES) and the pentylenetetrazol (PTZ)-induced seizure procedure. Melatonergic action is indicated by binding studies done in hamster hypothalamus tissue.
2. Maximum Electroshock Test
The MES procedure used is based upon the tests disclosed by Swinyard and et al in J. Pharmacol, Expt. Ther., (1952) 106, 319 and L. A. Woodbury et al in Arch. Int. Pharmocodyn, (1952), 92-97. These tests are also described in U.S. Pat. Nos. 5,242,942 and 5,240,937, respectively.
In the MES procedure, a tonic seizure was produced in female C57Bl/6 mice (17-26 g) by the delivery of a 50 milliamps current through corneal electrodes for 0.2 sec. Before testing, the animals were allowed food and water ad libitum. Compounds were injected i.p. 30 min before the MES. Reference compounds (phenytoin, carbamazepine, phenobarbital, and valproic acid) were tested at the peak of activity and at the dose range reported in the literature. Seven mice were used per group. In this test anticonvulsive activity was indicated by the abolition of the hind limb tonic extension. The median effective dose (ED50) was obtained for each compound and compared to ED50 's of reference compound(s).

[2] = system: pentylenetetrazol (PTZ)-induced seizures; experiment: Pentylenetetrazole (PTZ)-Induced Seizure Test; format: in vivo, female C57BI/6 mice; conditions: 50 mg/kg i.p., mice, 30 min before 75 mg/kg PTZ i.p.
Procedure: as §1
1. Pentylenetetrazole--Induced Seizure Test
The PTZ technique employed was similar to that disclosed in P.C.T. publication WO 93/0572 (PCT/US92/07675), published on Apr. 1, 1993.
In the PTZ procedure, female C57BI/6 mice (17-26 g) were injected j.p. (vol=0.1 ml/20 g) with test compound or vehicle 30 min before i.p. administration of 75 mg/kg pentylenetetrazol. Multiple doses of reference compounds (ethosuximide, trimethadione, and pentobarbital) were tested at the peak of activity and at the dose range reported in the literature. Ten mice were used per group. After injection, mice were placed in individual observation cages and monitored for one hour. During the first thirty minutes following PTZ injection, seizure activity was recorded by measure: the latency to the onset of pre-convulsive activity (Pre) the latency to the onset of the first clonic seizure longer than five seconds (First) the latency to the onset of the first intense-generalized clonic/tonic seizure (IGS) and the length of survival (Surv Time). During the second thirty-minute period, only time of death was recorded.
Those compounds that produced a significant delay in the onset of seizure activity or delayed (or abolished) mortality when compared to that produced by vehicle (reference) were classified as anticonvulsants. Significant differences between animals treated with reference or test compounds were determined using the Student's t-test.

SMILES: CCC(=O)Nc1ccccc1-c1nc2ccccc2[nH]1 [Example 1, N-[2-(1H-benzimidazol-2-yl)phenyl] propanamide]
- ED50 [1]: < 25 mg/kg

SMILES: COCC(=O)Nc1ccccc1-c1nc2ccccc2[nH]1 [Example 2, N-[2-(benzimidazol-2-yl)phenyl] methoxyacetamide]
- ED50 [1]: < 75 mg/kg

SMILES: CNC(=O)Nc1ccccc1-c1nc2ccccc2[nH]1 [Example 10, N-[2-(benzimidazol-2-yl)phenyl]-N'-methyl urea]
- ED50 [1]: < 75 mg/kg
- First: latency to first seizure [2]: ++ (>200% controls)
- Pre: latency to first twitch [2]: + (>100% controls)
- Surv Time: duration of survival [2]: ++ (>200% controls)
- Surv: survival at one hour postPTZ [2]: ++++ (>400% controls)

SMILES: CC(=O)Nc1ccccc1-c1nc2ccccc2o1 [Example 11, N-[2-(benzoxazol-2-yl)phenyl] acetamide]
- ED50 [1]: < 75 mg/kg

SMILES: CNC(=O)Nc1ccccc1-c1nc2ccccc2o1 [Example 12, N-[2-(benzoxazol-2-yl)phenyl]-N'-methyl urea]
- ED50 [1]: < 100 mg/kg
- First: latency to first seizure [2]: +++ (>300% controls)
- IGS: onset of intense, generalized seizures [2]: + (>100% controls)
- Pre: latency to first twitch [2]: + (>100% controls)
- Surv Time: duration of survival [2]: ++ (>200% controls)
- Surv: survival at one hour postPTZ [2]: ++ (>200% controls)

SMILES: CC(=O)Nc1ccccc1-c1nc2ccccc2s1 [Example 13, N-[2-(benzthiazol-2-yl)phenyl] acetamide]
- ED50 [1]: < 25 mg/kg

SMILES: COc1ccc2[nH]c(-c3ccccc3NC(C)=O)nc2c1 [Example 15, N-[2-(5-methoxy-1H-benzimidazol-2-yl)phenyl] acetamide]
- First: latency to first seizure [2]: + (>100% controls)
- Pre: latency to first twitch [2]: + (>100% controls)
- Surv Time: duration of survival [2]: ++ (>200% controls)

— patent publication US5496826A, “Pharmaceutical methods of using heterocyclic derivatives of N-phenylamides” (Bristol-Myers Squibb Company, priority 1994, dated 1996)
